Assays:
[1] = tested on: hematological cancer cell lines; test: Viability of hematological cancer cell lines in vitro (assay not given); format: cell-based; conditions: most hematological cancer cell lines in vitro
BL2 and IM9 cells = test: Calcein viability, PCLX-001 vs dasatinib and ibrutinib; format: cell-based
Protocol: Calcein assay consists of measuring the cell viability ratio (live cells/total cells and expressed as % viability). Cells were stained with the Nuclear-ID Blue/Red cell viability reagent (GFP-certified, Enzo Life Sciences) to identify total cells, and dead cells while live cells were stained with Calcein AM (Life Technologies) according to manufacturer's instructions. Cell count was performed using a Cytation 5 Cell Imaging Multi-Mode Reader (Biotek Instruments, Inc.) and analysed by Biotek Gen5 Data Analysis software (version 2.09).

BL2 xenografts = test: BL2 xenograft, tumor growth; format: in vivo, mouse
Text: BL2 xenograft study at Jackson Laboratory: One hundred five (105) 6 week old female NOD.CB17-Prkdc scid/J (NOD scid, Stock #001303) mice were transferred to the in vivo research laboratory in Sacramento, CA. The mice were ear notched for identification and housed in individually and positively ventilated polysulfone cages with HEPA filtered air at a density of 5 mice per cage. Initially cages were changed every two weeks. The animal room was lighted entirely with artificial fluorescent lighting, with a controlled 12 hour light/dark cycle (6 am to 6 pm light). The normal temperature and relative humidity ranges in the animal rooms were 20-26° C. and 30-70%, respectively. The animal rooms were set to have up to 15 air exchanges per hour. Filtered tap water, acidified to a pH of 2.5 to 3.0, and standard lab chow were provided ad libitum.
(§1) The dose volume was 10 mL/kg.
(§2) TGI (%)=(Vcontrol−Vtreated)/(Vcontrol−Vnitial)*100.

[2] = tested on: patient DLBCL3 derived lymphoma xenograft; test: DLBCL3 patient-derived xenograft, tumor growth; format: in vivo, mouse; conditions: 20 mg/kg subcutaneous daily, 21 days
Protocol: as §1, §2
The pleural fluid was collected in cold sterile 20% RPMI 1640 medium and neoplastic cells were isolated with Ficoll-Paque Plus (GE Healthcare) and re-suspended in […] (Life Technologies) with 20% foetal bovine serum (Life Technologies, Carlsbad, CA). […] The cell suspension was injected subcutaneously in the flank of 4-6-week-old NODscid mice. When the tumors reached a maximum of 1000 mm^3, the mice were sacrificed, tumors were harvested, and a necropsy was performed. Xenograft tumors were immediately frozen, fixed in formalin, and stored in 90% foetal bovine serum, and 10% dimethyl sulfoxide or placed in RPMI 1640 medium. This process was repeated to produce subsequent generations of patient-derived xenograft models (P2, P3, P4, . . . ). To evaluate the maintenance of the morphology and main characteristics of the tumor of origin, formalin-fixed, paraffin-embedded tissue sections from patient tumor samples and xenografts of all established patient-derived xenograft models were stained with haematoxylin and eosin. These sections were also immunostained to measure the expression of various markers. A clinical pathologist reviewed all the slides. […]

[3] = Protocol: Data collected were the same as in the Charles River xenograft study—clinical signs, body weight, tumor volume, blood samples from 3 mice/group for hematology and clinical chemistry (ALT, AST, BUN, creatinine, CK), and tissue samples collected and fixed from the same 3 mice. Liver, kidneys, and small intestine also were weighed.
as §1

[4] = Toxicology in DLBCL3 patient derived xenograft mice; format: in vivo, mouse; conditions: for Absolute Basophil cells: normal [0-0.2]; for Absolute Monocyte cells: normal [0-0.4]; for Basophil %: normal [0-2]; for Eosinophil %: normal [0-3.9]; for Monocyte %: normal [0-7.5]; for Absolute Neutrophil cells: normal [0.1- 2.4]; for WBC: normal [1.8-10.7]; for MPV: normal [5-20]; for RDW %: normal [12.4-27]
Protocol: as §1

[5] = T cell viability by flow cytometry; format: cell-based; conditions: human, purified T cells from healthy donors; for viability at 4 days, 20 nM: Drug 20 nM; for viability at 4 days, 100 nM: Drug 100 nM; for viability at 4 days, 500 nM: Drug 500 nM
Protocol: Human peripheral blood mononuclear cells (PBMC) and purified T cells from healthy donors were purchased from […] Technologies (CA). Cells (7.5×10^6/ml) were cultured in the RPMI supplementing with 10% heat-inactivated fetal bovine serum (vWR), 1% penicillin/streptomycin (SigmaMillipore), 1% sodium pyruvate, and 1% non-essential amino acids (Gibco) in 24 well plates in the presence of 100 IU/ml interleukin 2 ([…] Technologies or HIV reagent program (managed by ATCC).
Then, cells were induced with T cell activator ([…]) in the presence of the drugs for 2 more days. After 4 days, the viability of treated T cells was analyzed using Flow cytometry. The supernatants for both PBMC and T cells were collected for further analysis.

[6] = Mouse IV; cited from earlier work
[7] = dogs; cited from earlier work
[8] = DLBCL patient derived xenograft, PCLX-001 20 mg/kg/day
[9] = DLBCL patient derived xenograft, PCLX-001 50 mg/kg/day

## Cc1c(N[S+](=O)([O-])c2c(Cl)cc(-c3ccnc(N4CCNCC4)c3)cc2Cl)c(CC(C)C)nn1C [PCLX-001]
[1]
  IC50: 50 to 100 nM
BL2 and IM9 cells; BL2 cells, 0.1 and 1.0 μM, 48 hours
  cell death: less than 25%
BL2 and IM9 cells; at concentrations that are becoming cytotoxic
  viability of treated cells: at least 75%
BL2 xenografts; 20 mg/kg daily, by day 9
  tumor regression: 42.5%
BL2 xenografts; 56 mg/kg daily, 13 days
  tumor regression: 100%
BL2 xenografts; 60 mg/kg daily, 13 days
  tumor regression: 100%
[2]
  TGI: 66%
[3]; 20, 50, 60 mg/kg/day
  clinical pathology and anatomic pathology: no clinical pathology or anatomic pathology findings
[3]; 50 or 60 mg/kg/day
  dehydration and body weight: Dehydration and weight loss
[3]; most mice in groups given PCLX-001 (20, 50, 60 mg/kg/day)
  clinical signs: Signs of ill health
[4]; 50 mg/kg daily
  loss of body weight: ~15%
[4]; 20 and 50 mg/kg
  clinical signs, clinical pathology, anatomic pathology: no clinical signs of toxicity, effects on clinical pathology parameters, or anatomic pathology findings
[4]; [8]
  Hematocrit %: 47.13 ± 1.1%
  MCV: 53.5 ± 0.36
  Neutrophil %: 57.17 ± 9.40%
  RBC: 8.81 ± 0.15 M/ul
  Absolute Basophil cells: 0 ± 0
  Absolute Monocyte cells: 0.23 ± 0.06
  Basophil %: 0.1 ± 0.04%
  Eosinophil %: 0.26 ± 0.08%
  Monocyte %: 15.48 ± 4.35%
  Absolute Neutrophil cells: 0.86 ± 0.22
  WBC: 1.49 ± 0.24 K/ul
  MPV: 4.93
  RDW %: 18.07 ± 0.03%
[4]; [9]
  Hematocrit %: 42.47 ± 4.04%
  MCV: 50.83 ± 0.35
  Neutrophil %: 58.04%
  RBC: 8.36 ± 0.83 M/ul
  Absolute Basophil cells: 0 ± 0
  Absolute Monocyte cells: 0.37 ± 0.07
  Basophil %: 0.04 ± 0.04%
  Eosinophil %: 0.32 ± 0.1%
  Monocyte %: 17.24%
  Absolute Neutrophil cells: 1.28 ± 0.34
  WBC: 2.17 ± 0.5 K/ul
  MPV: 5.27 ± 0.18
  RDW %: 20.37 ± 0.37%
[4]; DLBCL patient derived xenograft, PCLX-001 50 mg/kg/day, normal [0.9-9.3]
  Absolute Lymphocyte cells: 0.52 ± ? .12
[4]; DLBCL patient derived xenograft, PCLX-001 50 mg/kg/day, normal [14.1-19.3]
  MCH: 12.5 pg
[4]; DLBCL patient derived xenograft, PCLX-001 50 mg/kg/day, normal [30.2-34.2]
  MCHC: 24.53 ± 0.24 g/dL
[4]; DLBCL patient derived xenograft, PCLX-001 50 mg/kg/day, normal [55.8-91.6]
  Lymphocyte %: 24.36 ± 2.93%
[5]; T cells viability (#1)
  viability at 4 days, 20 nM: 9%
  viability at 4 days, 100 nM: 8%
  viability at 4 days, 500 nM: 10%
[5]; T cells viability (#2)
  viability at 4 days, 20 nM: 66%
  viability at 4 days, 100 nM: 60%
  viability at 4 days, 500 nM: 62%
[5]; T cells viability (#3)
  viability at 4 days, 20 nM: 76%
  viability at 4 days, 100 nM: 71%
  viability at 4 days, 500 nM: 68%
[6]
  Clearance: 3 mL/min/kg
[7]
  toxicity at high dose levels: hematopoietic toxicity

From US20240350481A1, “USE OF N-MYRISTOYL TRANSFERASE (NMT) INHIBITORS IN THE TREATMENT OF CANCER, AUTOIMMUNE DISORDERS, AND INFLAMMATORY DISORDERS” (PACYLEX PHARMACEUTICALS INC., priority 2020, published 2024)
